{
  "source": "patent US9545393B2",
  "about": "“Methods and compositions for treating pain” (The Board of Trustees of the Leland Stanford Junior …, priority 2012, dated 2017)",
  "test_system": "rats subjected to carrageenan insult to the right hind paw",
  "experiment": "Randall-Selitto paw pressure test, carrageenan-induced hyperalgesia in rats",
  "assay_type": "in vivo, rat",
  "details": "naloxone 1 mg/kg s.c., with or without Alda-1; carrageenan rats",
  "method": "Rats. Male Wistar rats (170-190 g) were provided by Charles River Laboratories or Butantan Institute Animal Facility and housed in a temperature-controlled (22±1° C.) and light-controlled (12/12 h light/dark cycle) room. All rats were housed in their surrounding for at least 3 days. Groups of 5-6 rats were used.\nDrugs Used. 0.1 ml saline (control), carrageenan (200 μg for rats, 100 μg for mice; Marine Colloids), or prostaglandin E2 (100 ng, Sigma) was administered by intraplantar injection into the right hind paw to induce hyperalgesia. These doses were chosen based on previous studies by our laboratory groups (Aley K O, et al., (2000) Chronic hypersensitivity for inflammatory nociceptor sensitization mediated by the epsilon isozyme of protein kinase C. The Journal of neuroscience: the official journal of the Society for Neuroscience 20: 4680-4685; Konno K, et al., (2008) Crotalphine, a novel potent analgesic peptide from the venom of the South American rattlesnake Crotalus durissus terrificus. Peptides 29: 1293-1304).\nAlda-1 dose (2 mg/kg/per injection, dissolved in 50% PEG/50% DMSO) was established in preliminary studies and given in multiple doses due to its estimated short half-life. Alda-1 was injected subcutaneously to the dorsal side of the neck 15 minutes before carrageenan or saline, and again at 30 and 150 minutes after carrageenan, prostaglandin E2 or saline injection. One subset of animals received Alda-1 only 30 and 150 minutes after carrageenan injection. Where indicated, naloxone (1 mg/kg per injection) or vehicle (saline) was given 10 minutes prior to each Alda-1 treatment to the dorsal side of the neck.\nNociception Assessment. The experimental performer was blinded to both genotype and/or treatments. Nociceptive response was assessed by the von Frey method for mice and the Randall-Selitto method for rats immediately before and 180 minutes after carrageenan or prostaglandin E2 injection. Both mice and rats were acclimated to the testing equipment one day before baseline testing.\nRandall-Selitto method: Nociceptive threshold was determined using the Randall-Selitto paw pressure test (Ugo-Basile), as previously described (Gutierrez V P, et al., (2008) Crotalphine induces potent antinociception in neuropathic pain by acting at peripheral opioid receptors. European journal of pharmacology 594: 84-92). The baseline values varied between 65-75 g of force. Animals with baseline out of this range (about 10%) were excluded prior to initiating the study in order to achieve uniform testing.",
  "data": [
    {"molecule": "C=CCN1CC[C@]23c4c5ccc(O)c4O[C@H]2C(=O)CC[C@@]3(O)[C@H]1C5", "note": "[Naloxone, reference compound]", "values": [
      {"measurement": "Effect of naloxone on nociceptive threshold", "result": "no effect"}
    ]}
  ]
}
